Results taken from US9833497B2, “Human originated EGF domain proteins and use of the same” (CHENGDU SOURCEBIO LIMITED-LIABILITY COMPANY, priority 2013, dated 2017).

Experiments:
Format in all cases: cell-based
Moraxella catarrhalis = assay: MIC against Gram-negative bacteria: Moraxella catarrhalis; settings: for MIC: M. catarrhalis
Outline: (§1)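 First, colonies from LB agar were grown in LB at 37° C, 185 rpm, to McFarland turbidity 0.5, then centrifuged and resuspended in fresh LB. Next, wells received 5×10^5 CFU/mL bacteria plus two-fold serially diluted EGF domain protein (triplicate). Finally, plates were shaken at 37° C and the no-growth concentration taken as MIC.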

E. coli DH5α = assay: Antibacterial activity: MIC and growth curve against E. coli DH5α in 96-well plate; settings: minimal inhibitory concentration against E. coli DH5α; 96-well plate, 5×10^5 CFU/mL, 37° C., judged after 8 h
Outline: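 Log-phase DH5α (OD600 about 0.5, 37° C, 185 rpm in LB) was pelleted, resuspended in fresh LB and seeded at 5×10^5 CFU/mL with recombinant protein at 50, 25 and 12.5 μg/mL (two-fold series), in triplicate. Plates were shaken at 175 rpm, 37° C, and OD600 was read every 30 min. MIC was the lowest concentration with no growth.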

Proteus vulgaris = assay: MIC against Gram-negative bacteria: Proteus vulgaris; settings: for MIC: P. vulgaris
Outline: as §1

Proteus mirabilis = assay: MIC against Gram-negative bacteria: Proteus mirabilis; settings: for MIC: P. mirabilis
Outline: as §1

Pseudomonas aeruginosa = assay: MIC against Gram-negative bacteria: Pseudomonas aeruginosa; settings: for MIC: P. aeruginosa
Outline: as §1

Aeromonas hydrophila = assay: MIC against Gram-negative bacteria: Aeromonas hydrophila; settings: for MIC: A. hydrophila
Outline: as §1

Serratia marcescens = assay: MIC against Gram-negative bacteria: Serratia marcescens; settings: for MIC: S. marcescens
Outline: as §1

Klebsiella pneumonia = assay: MIC against Gram-negative bacteria: Klebsiella pneumonia; settings: for MIC: K. pneumonia
Outline: as §1

Enterobacter cloacae = assay: MIC against Gram-negative bacteria: Enterobacter cloacae; settings: for MIC: E. cloacae
Outline: as §1

Citrobacter diversus = assay: MIC against Gram-negative bacteria: Citrobacter diversus; settings: for MIC: C. diversus
Outline: as §1

E. coli BL21 = assay: MIC against Gram-negative bacteria: E. coli BL21
Outline: as §1

[1] = 96-well plate, 5×10^5 CFU/mL, 37° C., 10 h
[2] = E. coli BL21, 10 h cultivation at 37° C.
[3] = Moraxella catarrhalis, 96-well plate, 5×10^5 CFU/mL, 37° C., 10 h
[4] = Proteus vulgaris, 96-well plate, 5×10^5 CFU/mL, 37° C., 10 h
[5] = Proteus mirabilis, 96-well plate, 5×10^5 CFU/mL, 37° C., 10 h
[6] = Pseudomonas aeruginosa, 96-well plate, 5×10^5 CFU/mL, 37° C., 10 h
[7] = Aeromonas hydrophila, 96-well plate, 5×10^5 CFU/mL, 37° C., 10 h
[8] = Serratia marcescens, 96-well plate, 5×10^5 CFU/mL, 37° C., 10 h
[9] = Klebsiella pneumonia, 96-well plate, 5×10^5 CFU/mL, 37° C., 10 h
[10] = Enterobacter cloacae, 96-well plate, 5×10^5 CFU/mL, 37° C., 10 h
[11] = Citrobacter diversus, 96-well plate, 5×10^5 CFU/mL, 37° C., 10 h
[12] = E. coli BL21, 96-well plate, 5×10^5 CFU/mL, 37° C., 10 h
[13] = 10 h cultivation at 37° C., 5×10^5 CFU/mL, two-fold serial dilution

PRT450 (KCLCPLGFLLANDSKTCEDIDE; listed as Homo sapiens)
50 µg/mL: MIC against M. catarrhalis (Moraxella catarrhalis; [1]) | MIC against P. vulgaris (Proteus vulgaris; [1]) | MIC against A. hydrophila (Aeromonas hydrophila; [1]) | MIC against K. pneumonia (Klebsiella pneumonia; [1])
12.5 µg/mL: MIC (E. coli DH5α) | MIC against P. mirabilis (Proteus mirabilis; [1]) | MIC against P. aeruginosa (Pseudomonas aeruginosa; [1]) | MIC against S. marcescens (Serratia marcescens; [1]) | MIC against E. cloacae (Enterobacter cloacae; [1]) | MIC against C. diversus (Citrobacter diversus; [1]) | MIC against E. coli BL21 (E. coli BL21; [1])

PRT934 (DKNECLSNPCQNGGTCDNLVNGYRCTCKKGFKGYNCQ; listed as Homo sapiens)
25 µg/mL: MIC (Aeromonas hydrophila; 10 h cultivation at 37° C.) | MIC (Citrobacter diversus; 10 h cultivation at 37° C.) | MIC (E. coli BL21; [2])
12.5 µg/mL: MIC (Moraxella catarrhalis; 10 h cultivation at 37° C.) | MIC (E. coli DH5α) | MIC (Proteus vulgaris; 10 h cultivation at 37° C.) | MIC (Klebsiella pneumonia; 10 h cultivation at 37° C.)
50 µg/mL: MIC (Proteus mirabilis; 10 h cultivation at 37° C.) | MIC (Pseudomonas aeruginosa; 10 h cultivation at 37° C.) | MIC (Serratia marcescens; 10 h cultivation at 37° C.) | MIC (Enterobacter cloacae; 10 h cultivation at 37° C.)

PRT1460 (CDCDTVGTRNGSILCDQIGGQCNCKRHVSGRQCNQCQNGFYNLQELDPDGCSP; listed as Homo sapiens)
25 µg/mL: MIC against P. vulgaris (Proteus vulgaris; Proteus vulgaris, 5×10^5 CFU/mL, 10 h cultivation at 37° C.) | MIC against P. aeruginosa (Pseudomonas aeruginosa; Pseudomonas aeruginosa, 5×10^5 CFU/mL, 10 h cultivation at 37° C.) | MIC against E. cloacae (Enterobacter cloacae; Enterobacter cloacae, 5×10^5 CFU/mL, 10 h cultivation at 37° C.) | MIC against C. diversus (Citrobacter diversus; Citrobacter diversus, 5×10^5 CFU/mL, 10 h cultivation at 37° C.) | MIC against E. coli BL21 (E. coli BL21; E. coli BL21, 5×10^5 CFU/mL, 10 h cultivation at 37° C.)
50 µg/mL: MIC against M. catarrhalis (Moraxella catarrhalis; Moraxella catarrhalis, 5×10^5 CFU/mL, 10 h cultivation at 37° C.) | MIC against S. marcescens (Serratia marcescens; Serratia marcescens, 5×10^5 CFU/mL, 10 h cultivation at 37° C.) | MIC against K. pneumonia (Klebsiella pneumonia; Klebsiella pneumonia, 5×10^5 CFU/mL, 10 h cultivation at 37° C.)
12.5 µg/mL: MIC (E. coli DH5α) | MIC against P. mirabilis (Proteus mirabilis; Proteus mirabilis, 5×10^5 CFU/mL, 10 h cultivation at 37° C.) | MIC against A. hydrophila (Aeromonas hydrophila; Aeromonas hydrophila, 5×10^5 CFU/mL, 10 h cultivation at 37° C.)

PRT1208 (VHHGCEDDPCPEGSECVSDPWEEKHTCVCPSGRFGQCP; listed as Homo sapiens)
50 µg/mL: MIC against P. mirabilis (Proteus mirabilis; [5]) | MIC against A. hydrophila (Aeromonas hydrophila; [7])
12.5 µg/mL: MIC against M. catarrhalis (Moraxella catarrhalis; [3]) | MIC (E. coli DH5α) | MIC against P. aeruginosa (Pseudomonas aeruginosa; [6]) | MIC against S. marcescens (Serratia marcescens; [8]) | MIC against E. cloacae (Enterobacter cloacae; [10])
25 µg/mL: MIC against P. vulgaris (Proteus vulgaris; [4]) | MIC against K. pneumonia (Klebsiella pneumonia; [9]) | MIC against C. diversus (Citrobacter diversus; [11]) | MIC against E. coli BL21 (E. coli BL21; [12])

PRT484 (RCEDLDGVVCGGHGTCSCGRCVCERGWFGKLCQ; listed as Homo sapiens)
12.5 µg/mL: MIC against P. mirabilis (Proteus mirabilis; [1]) | MIC against S. marcescens (Serratia marcescens; [1]) | MIC against E. cloacae (Enterobacter cloacae; [1]) | MIC against C. diversus (Citrobacter diversus; [1]) | MIC against E. coli BL21 (E. coli BL21; [1])
25 µg/mL: MIC (E. coli DH5α) | MIC against P. aeruginosa (Pseudomonas aeruginosa; [1])
50 µg/mL: MIC against M. catarrhalis (Moraxella catarrhalis; [1]) | MIC against P. vulgaris (Proteus vulgaris; [1]) | MIC against A. hydrophila (Aeromonas hydrophila; [1]) | MIC against K. pneumonia (Klebsiella pneumonia; [1])

PRT560 (GSCHPAGLAPVDPALPEAQVPCMCRAHVEGPSCDRCKPGFWGLSPSNPEGCTR; listed as Homo sapiens)
12.5 µg/mL: MIC (E. coli DH5α)
50 µg/mL: MIC against P. vulgaris (Proteus vulgaris; [1]) | MIC against P. mirabilis (Proteus mirabilis; [1]) | MIC against P. aeruginosa (Pseudomonas aeruginosa; [1]) | MIC against S. marcescens (Serratia marcescens; [1]) | MIC against E. cloacae (Enterobacter cloacae; [1]) | MIC against C. diversus (Citrobacter diversus; [1])
25 µg/mL: MIC against M. catarrhalis (Moraxella catarrhalis; [1]) | MIC against A. hydrophila (Aeromonas hydrophila; [1]) | MIC against K. pneumonia (Klebsiella pneumonia; [1]) | MIC against E. coli BL21 (E. coli BL21; [1])

PRT1109 (EPRGCATQPCHHGALCVPQGPDPTGFRCYCVPGFQGPRCE; listed as Homo sapiens)
50 µg/mL: MIC P. mirabilis (Proteus mirabilis; [13]) | MIC A. hydrophila (Aeromonas hydrophila; [13])
25 µg/mL: MIC M. catarrhalis (Moraxella catarrhalis; [13]) | MIC P. vulgaris (Proteus vulgaris; [13]) | MIC K. pneumonia (Klebsiella pneumonia; [13]) | MIC E. coli BL21 (E. coli BL21; [13])
12.5 µg/mL: MIC (E. coli DH5α) | MIC P. aeruginosa (Pseudomonas aeruginosa; [13]) | MIC S. marcescens (Serratia marcescens; [13]) | MIC E. cloacae (Enterobacter cloacae; [13]) | MIC C. diversus (Citrobacter diversus; [13])

PRT1019 (NLDDCIAATCAPGSTCIDRVGSFSCLCPPGRTGLLCH; listed as Homo sapiens)
12.5 µg/mL: MIC (Moraxella catarrhalis; 10 h cultivation at 37° C.) | MIC (E. coli DH5α) | MIC (Proteus vulgaris; 10 h cultivation at 37° C.) | MIC (Pseudomonas aeruginosa; 10 h cultivation at 37° C.) | MIC (Aeromonas hydrophila; 10 h cultivation at 37° C.)
25 µg/mL: MIC (Serratia marcescens; 10 h cultivation at 37° C.) | MIC (Klebsiella pneumonia; 10 h cultivation at 37° C.)
50 µg/mL: MIC (Proteus mirabilis; 10 h cultivation at 37° C.) | MIC (Enterobacter cloacae; 10 h cultivation at 37° C.) | MIC (Citrobacter diversus; 10 h cultivation at 37° C.) | MIC (E. coli BL21; [2])

PRT72 (NKLDLPCPRGWWGNPVCGPCHCAVSKGFDPDCN; listed as Homo sapiens)
25 µg/mL: MIC (μg/mL) P. vulgaris (Proteus vulgaris; [4]) | MIC (μg/mL) P. aeruginosa (Pseudomonas aeruginosa; [6]) | MIC (μg/mL) E. cloacae (Enterobacter cloacae; [10])
12.5 µg/mL: MIC (μg/mL) M. catarrhalis (Moraxella catarrhalis; [3]) | MIC (E. coli DH5α) | MIC (μg/mL) P. mirabilis (Proteus mirabilis; [5]) | MIC (μg/mL) A. hydrophila (Aeromonas hydrophila; [7]) | MIC (μg/mL) K. pneumonia (Klebsiella pneumonia; [9]) | MIC (μg/mL) C. diversus (Citrobacter diversus; [11]) | MIC (μg/mL) E. coli BL21 (E. coli BL21; [12])
100 µg/mL: MIC (μg/mL) S. marcescens (Serratia marcescens; [8])

PRT1197 (DIDECAAKMHYCHANTVCVNLPGLYRCDCVPGYIRVDDFSCT; listed as Homo sapiens)
25 µg/mL: MIC (E. coli DH5α) | MIC against P. mirabilis (Proteus mirabilis; [5]) | MIC against P. aeruginosa (Pseudomonas aeruginosa; [6]) | MIC against S. marcescens (Serratia marcescens; [8]) | MIC against C. diversus (Citrobacter diversus; [11])
12.5 µg/mL: MIC against M. catarrhalis (Moraxella catarrhalis; [3]) | MIC against E. cloacae (Enterobacter cloacae; [10]) | MIC against E. coli BL21 (E. coli BL21; [12])
50 µg/mL: MIC against P. vulgaris (Proteus vulgaris; [4]) | MIC against A. hydrophila (Aeromonas hydrophila; [7]) | MIC against K. pneumonia (Klebsiella pneumonia; [9])

PRT655 (DVDECATTDPCVGGHCVNTEGSFNCLCETGFQPSPESGECV; listed as Homo sapiens)
25 µg/mL: MIC (E. coli DH5α) | MIC P. mirabilis (Proteus mirabilis; [1]) | MIC A. hydrophila (Aeromonas hydrophila; [1]) | MIC S. marcescens (Serratia marcescens; [1]) | MIC K. pneumonia (Klebsiella pneumonia; [1])
50 µg/mL: MIC M. catarrhalis (Moraxella catarrhalis; [1]) | MIC E. cloacae (Enterobacter cloacae; [1]) | MIC E. coli BL21 (E. coli BL21; [1])
12.5 µg/mL: MIC P. vulgaris (Proteus vulgaris; [1]) | MIC P. aeruginosa (Pseudomonas aeruginosa; [1]) | MIC C. diversus (Citrobacter diversus; [1])
